Reference: ChEMBL document CHEMBL4376816, “Discovery of the Oral Leukotriene C4 Synthase Inhibitor (1S,2S)-2-({5-[(5-Chloro-2,4-difluorophenyl)(2-fluoro-2-methylpropyl)amino]-3-methoxypyrazin-2-yl}carbonyl)cyclopropanecarboxylic Acid (AZD9898) as a New Treatment for Asthma” (J Med Chem, 2019)
Activity calls are given as the source filed them. The rule behind the calls is not given here.

Key:
Leukotriene C4 synthase [1] = target: T1, Leukotriene C4 synthase (Homo sapiens, UniProt Q16873)
T1 sequence (Q16873 whole entry): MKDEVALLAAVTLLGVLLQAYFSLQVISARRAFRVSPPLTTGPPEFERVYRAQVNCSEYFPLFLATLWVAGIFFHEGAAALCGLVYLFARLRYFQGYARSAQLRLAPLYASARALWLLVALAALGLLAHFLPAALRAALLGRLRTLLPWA

[2] = Octanol/Sodium phosphate buffer partition coefficient, log D of compound at pH 7.4 at 1 mg incubated for overnight under shaking condition by LC-MS/MS analysis; type: physicochemical
Leukotriene C4 synthase [3] = target: T1, Leukotriene C4 synthase; remark: listed apart in the source
[4] = Intrinsic clearance in human hepatocytes at 1 uM assessed as per million cells after 2 to 60 mins by LC-MS/MS analysis; type: ADME, cell-based, Hepatocyte; details: read-out: CLH
[5] = Displacement of [3H]-GABA/[3]-muscimol from GABA gated chloride channel in Sprague-Dawley rat cortical synoptic membranes by liquid scintillation analysis
[6] = target: T2, Leukotriene C4 synthase (Homo sapiens) (UniProt Q16873); assay: Inhibition of LTC4S in healthy human whole blood assessed as inhibition of calcium ionophore A23187 stimulated cysteinyl leukotrienes production preincuabted for 30 mins followed by calcium ionophore stimulation and measured after 10 mins by LC-MS analysis; type: tissue-based
T2 sequence (whole entry): T1 sequence (Q16873 whole entry)

[7] = target: T2, Leukotriene C4 synthase (Homo sapiens); assay: Inhibition of LTC4S in asthmatic human whole blood assessed as inhibition of calcium ionophore A23187 stimulated cysteinyl leukotrienes production preincuabted for 30 mins followed by calcium ionophore stimulation and measured after 10 mins by LC-MS analysis; type: tissue-based
[8] = target: T2, Leukotriene C4 synthase (Homo sapiens)

| logD [2] | hepatocyte CLint at 1 µM [4] [µL/min/1e6 cells] | IC50 [5] [nM] | Structure (SMILES) | other results |
| --- | --- | --- | --- | --- |
| 1.8 | 3 |  | COc1nc(N(CC(C)C)c2cc(Cl)c(F)cc2F)cnc1C(=O)[C@H]1C[C@@H]1C(=O)O | IC50 (Leukotriene C4 synthase [1]): 0.28 nM; IC50 (Leukotriene C4 synthase [3]): 4.1 nM |
| 1.2 | 7.2 | 19000 | CCCN(c1cccc(C(F)(F)F)c1)c1cnc(C(=O)[C@H]2C[C@@H]2C(=O)O)c(OC)c1 |  |
| 0.9 | < 1.5 | 54000 | COc1cc(N(CC(C)(C)F)c2cccc(C(F)(F)F)c2)cnc1C(=O)[C@H]1C[C@@H]1C(=O)O |  |
| 1.4 | 3.8 | 2900 | CCN(c1cnc(C(=O)[C@H]2C[C@@H]2C(=O)O)c(OC)c1)c1ccc(F)c2ccccc12 |  |
| 1.3 | 4.9 |  | COc1cc(N(CC(C)C)c2cc(Cl)c(F)cc2F)cnc1C(=O)[C@H]1C[C@@H]1C(=O)O |  |
| 1.1 | < 1.5 | 5400 | COc1cc(N(CC2CC2)c2cc(Cl)c(F)cc2F)cnc1C(=O)[C@H]1C[C@@H]1C(=O)O |  |
| 1.6 | 4.3 |  | COc1cc(N(CC2CC2)c2ccc(Cl)c(Cl)c2)cnc1C(=O)[C@H]1C[C@@H]1C(=O)O |  |
| 1.1 | 1.3 |  | COc1cc(N(CC2CC2)c2cc(Cl)ccc2F)cnc1C(=O)[C@H]1C[C@@H]1C(=O)O |  |
| 0.8 | < 1 |  | COc1cc(N(CC(C)(C)F)c2cc(C(F)(F)F)ccc2F)cnc1C(=O)[C@H]1C[C@@H]1C(=O)O |  |
| 2 | 2.9 |  | COc1nc(N(CC(C)C)c2cc(C(F)(F)F)ccc2F)cnc1C(=O)[C@H]1C[C@@H]1C(=O)O | IC50 (Leukotriene C4 synthase [1]): 0.36 nM; IC50 (Leukotriene C4 synthase [3]): 3.5 nM |
| 1.9 | 4.2 |  | COc1cc(N(Cc2ccc(F)cc2)c2cccc(C(F)(F)F)c2)cnc1C(=O)[C@H]1C[C@@H]1C(=O)O |  |
| 1.9 | 5.4 | 640 | COc1cc(N(CC2CC2)c2ccc(F)c3ccccc23)cnc1C(=O)[C@H]1C[C@@H]1C(=O)O |  |
| 1.2 | 3.1 | 3000 | COc1cc(N(CC2CC2)c2ccc(F)c(Cl)c2)cnc1C(=O)[C@H]1C[C@@H]1C(=O)O |  |
|  |  |  | COc1nc(C(=O)[C@H]2C[C@@H]2C(=O)O)ncc1N(CC1CC1)c1cccc2ccccc12 | IC50 (Leukotriene C4 synthase [1]): 2.4 nM |
| 0.65 | 3 |  | COc1cc(N(CC2CC2)c2ccccc2)cnc1C(=O)[C@H]1C[C@@H]1C(=O)O |  |
| 1.3 | 1.8 |  | COc1cc(N(CC2CC2)c2ccc(Cl)cc2)cnc1C(=O)[C@@H]1C[C@H]1C(=O)O (relative stereo) |  |
| 2.8 | 6.8 |  | COc1cc(N(CC2CC2)c2ccc(Cl)c3ccccc23)cnc1C(=O)CCCC(=O)O |  |

| logD [2] | hepatocyte CLint at 1 µM [4] [µL/min/1e6 cells] | IC50 [5] [nM] | Structure (SMILES) | other results |
| --- | --- | --- | --- | --- |
|  |  |  | CC(c1cc2ccccc2s1)N(O)C(N)=O (stereo not given) | inhibition [6]: Active; inhibition [7]: Active |
|  |  |  | COc1ccccc1C(=O)Nc1ccc(C(=O)c2ccc(N(C)c3ccc(Cl)cc3)cn2)cc1C(=O)O | IC50 (Leukotriene C4 synthase [1]): 35 nM |
| 1.7 | 28 |  | COc1cc(N(CC2CC2)c2ccc(Cl)cc2)cnc1C(=O)c1cccc(C(=O)O)c1 |  |
| 1.6 | 2.9 |  | COc1cc(N(CC(C)C)c2cccc(C(F)(F)F)c2)cnc1C(=O)[C@H]1C[C@@H]1C(=O)O |  |
| 1.4 | 3.9 |  | COc1cc(N(CC(C)C)c2cc(C(F)(F)F)ccc2F)cnc1C(=O)[C@H]1C[C@@H]1C(=O)O | IC50 (Leukotriene C4 synthase [3]): 6.8 nM |
| 1.2 | 1.5 |  | COc1nc(N(CC(C)(C)F)c2cc(C(F)(F)F)ccc2F)cnc1C(=O)[C@H]1C[C@@H]1C(=O)O | IC50 (Leukotriene C4 synthase [3]): 7.8 nM |
|  |  |  | O=C(Nc1ccc(Cc2ccc(NC(=O)c3ccccc3)c(C(=O)O)c2)cc1C(=O)O)c1ccccc1 | IC50 (Leukotriene C4 synthase [1]): 1900 nM; inhibition [8]: inactive |
| 0.8 | < 1.7 |  | COc1cc(N(CC(C)(C)F)c2cc(Cl)c(F)cc2F)cnc1C(=O)[C@H]1C[C@@H]1C(=O)O |  |
| 1.2 | < 1.1 | 8200 | COc1cc(N(CC2CC2)c2cc(C(F)(F)F)ccc2F)cnc1C(=O)[C@H]1C[C@@H]1C(=O)O |  |
| 1.8 | 7.6 | 3500 | CCCN(c1cnc(C(=O)[C@H]2C[C@@H]2C(=O)O)c(OC)c1)c1ccc(F)c2ccccc12 |  |
| 0 |  | > 100000 | COc1cc(N(CC(C)(C)O)c2cccc(C(F)(F)F)c2)cnc1C(=O)[C@H]1C[C@@H]1C(=O)O |  |
| 0.7 | 3.1 | 20000 | CCN(c1cccc(C(F)(F)F)c1)c1cnc(C(=O)[C@H]2C[C@@H]2C(=O)O)c(OC)c1 |  |
| 1.4 | 2.3 | 11000 | COc1cc(N(CC2CC2)c2cccc(C(F)(F)F)c2)cnc1C(=O)[C@H]1C[C@@H]1C(=O)O |  |
| 1.1 |  |  | COc1cc(N(CC(F)(F)F)c2cccc(C(F)(F)F)c2)cnc1C(=O)[C@H]1C[C@@H]1C(=O)O |  |
| 2.9 | 15 |  | COc1nc(C(=O)[C@@H]2C[C@H]2C(=O)O)ncc1N(CC1CC1)c1ccc(Cl)c2ccccc12 (relative stereo) | IC50 (Leukotriene C4 synthase [1]): 15.5 nM |
| 2.2 | 56 |  | COc1cc(N(CC(C)C)c2ccc(F)c3ccccc23)cnc1C(=O)[C@H]1C[C@@H]1C(=O)O |  |
